US20250382297A1, “INHIBITORS OF FGFR2 AND FGFR3 AND USES THEREOF” (Insilico Medicine IP Limited, priority 2022, published 2025)
Like-named read-outs stand apart in the source and are kept apart here.

Legend:
FGFR2 = FGFR2 (Homo sapiens (Human), UniProt P21802); assay: FGFR biochemical assay (LanthaScreen TR-FRET kinase assay), FGFR2
FGFR1 = FGFR1 (Homo sapiens (Human), UniProt P11362); assay: FGFR biochemical assay (LanthaScreen TR-FRET kinase assay), FGFR1
FGFR3 = FGFR3 (Homo sapiens (Human), UniProt P22607); assay: FGFR biochemical assay (LanthaScreen TR-FRET kinase assay), FGFR3
Sequence of FGFR3 (P22607 23-806): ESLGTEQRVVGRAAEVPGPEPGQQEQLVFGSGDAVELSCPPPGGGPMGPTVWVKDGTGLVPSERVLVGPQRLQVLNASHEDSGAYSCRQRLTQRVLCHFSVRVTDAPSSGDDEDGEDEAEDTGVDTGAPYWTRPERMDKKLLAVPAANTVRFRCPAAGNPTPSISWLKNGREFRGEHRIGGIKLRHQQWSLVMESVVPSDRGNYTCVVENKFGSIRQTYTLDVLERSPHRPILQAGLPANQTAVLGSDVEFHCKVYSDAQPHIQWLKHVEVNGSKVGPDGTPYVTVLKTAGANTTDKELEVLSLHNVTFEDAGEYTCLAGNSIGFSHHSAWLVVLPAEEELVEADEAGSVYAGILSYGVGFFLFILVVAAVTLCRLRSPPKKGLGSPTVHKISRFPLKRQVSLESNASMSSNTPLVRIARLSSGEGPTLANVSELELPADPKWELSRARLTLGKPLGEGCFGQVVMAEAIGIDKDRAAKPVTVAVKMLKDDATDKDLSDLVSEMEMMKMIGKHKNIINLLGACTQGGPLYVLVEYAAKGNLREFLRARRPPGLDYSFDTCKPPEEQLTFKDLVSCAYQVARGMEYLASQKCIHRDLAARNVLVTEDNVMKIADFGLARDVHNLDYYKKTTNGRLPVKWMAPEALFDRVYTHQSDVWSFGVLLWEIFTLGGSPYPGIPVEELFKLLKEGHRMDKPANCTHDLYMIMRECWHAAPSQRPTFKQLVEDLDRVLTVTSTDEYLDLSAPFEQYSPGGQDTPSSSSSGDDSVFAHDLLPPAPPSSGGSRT

[1] = read-out: FGFR2 IC50, incubation with enzyme at room temperature for 10 minutes before substrate, ATP 22 μM, FGFR2 0.01 nM
[2] = read-out: FGFR1 IC50, incubation with enzyme at room temperature for 10 minutes before substrate, ATP 28 μM, FGFR1 0.01 nM
[3] = read-out: FGFR3 IC50, incubation with enzyme at room temperature for 10 minutes before substrate, ATP 35 μM, FGFR3 0.1 nM
[4] = read-out: FGFR2 IC50, * incubation at room temperature for 60 minutes before addition of substrate solution, ATP 22 μM, FGFR2 0.01 nM
[5] = read-out: FGFR3 IC50, * incubation at room temperature for 60 minutes before addition of substrate solution, ATP 35 μM, FGFR3 0.1 nM

Sequence of FGFR1 (P11362 22-822): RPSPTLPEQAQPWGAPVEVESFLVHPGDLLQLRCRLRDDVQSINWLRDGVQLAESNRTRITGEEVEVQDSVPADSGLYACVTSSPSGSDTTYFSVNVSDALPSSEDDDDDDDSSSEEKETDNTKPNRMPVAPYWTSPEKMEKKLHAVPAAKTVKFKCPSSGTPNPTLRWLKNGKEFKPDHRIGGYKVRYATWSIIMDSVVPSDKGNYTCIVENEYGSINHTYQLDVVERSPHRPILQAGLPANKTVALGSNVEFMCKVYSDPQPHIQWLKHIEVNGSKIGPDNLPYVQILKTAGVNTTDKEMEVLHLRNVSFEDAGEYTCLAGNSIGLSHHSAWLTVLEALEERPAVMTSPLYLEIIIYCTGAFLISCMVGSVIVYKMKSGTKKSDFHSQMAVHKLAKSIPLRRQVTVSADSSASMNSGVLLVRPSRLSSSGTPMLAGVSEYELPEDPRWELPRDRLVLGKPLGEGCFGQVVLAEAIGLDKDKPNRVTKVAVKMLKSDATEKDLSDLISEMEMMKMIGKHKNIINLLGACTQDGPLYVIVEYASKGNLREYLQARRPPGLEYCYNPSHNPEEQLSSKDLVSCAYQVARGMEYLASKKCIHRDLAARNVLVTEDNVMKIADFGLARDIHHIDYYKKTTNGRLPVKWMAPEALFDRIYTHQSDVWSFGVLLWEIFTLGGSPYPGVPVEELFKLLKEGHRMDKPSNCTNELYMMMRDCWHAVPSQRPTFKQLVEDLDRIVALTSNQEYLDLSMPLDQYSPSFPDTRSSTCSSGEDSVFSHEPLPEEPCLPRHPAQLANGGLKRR
Sequence of FGFR2 (P21802 22-821): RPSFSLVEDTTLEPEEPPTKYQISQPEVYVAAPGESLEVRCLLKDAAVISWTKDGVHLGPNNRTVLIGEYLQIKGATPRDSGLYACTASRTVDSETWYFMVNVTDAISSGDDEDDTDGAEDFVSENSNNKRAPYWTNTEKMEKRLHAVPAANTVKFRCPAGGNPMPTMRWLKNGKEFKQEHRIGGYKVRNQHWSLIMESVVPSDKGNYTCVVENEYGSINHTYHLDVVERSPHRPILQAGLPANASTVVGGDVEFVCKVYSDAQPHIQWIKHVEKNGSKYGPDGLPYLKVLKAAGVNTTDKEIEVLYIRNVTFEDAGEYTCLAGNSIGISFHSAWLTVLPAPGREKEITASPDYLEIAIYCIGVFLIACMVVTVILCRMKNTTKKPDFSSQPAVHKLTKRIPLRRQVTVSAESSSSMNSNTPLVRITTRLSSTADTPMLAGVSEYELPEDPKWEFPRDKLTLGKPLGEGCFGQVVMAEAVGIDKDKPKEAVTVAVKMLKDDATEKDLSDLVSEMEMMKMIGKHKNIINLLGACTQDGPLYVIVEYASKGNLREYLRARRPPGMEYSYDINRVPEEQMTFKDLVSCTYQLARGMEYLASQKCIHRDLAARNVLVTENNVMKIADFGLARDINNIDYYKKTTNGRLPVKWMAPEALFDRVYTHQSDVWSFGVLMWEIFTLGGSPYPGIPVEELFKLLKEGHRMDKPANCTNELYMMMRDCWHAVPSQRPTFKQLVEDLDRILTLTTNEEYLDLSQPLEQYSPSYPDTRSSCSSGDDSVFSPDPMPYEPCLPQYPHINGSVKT

## C=CC(=O)Nc1ccc(-c2c(-c3ccc(Oc4nccc(C)n4)cc3)c(C(N)=O)c3cnc(C)cn23)cc1OC [Example 38, 6-(4-acrylamido-3-methoxyphenyl)-3-methyl-7-(4-((4-methylpyrimidin-2-yl)oxy)phenyl)pyrrolo[1,2-a]pyrazine-8-carboxamide]
FGFR2
  IC50: 10 to 100 nM
FGFR1
  IC50: 100 to 1000 nM
FGFR3
  IC50: 10 to 100 nM

## C=C(F)C(=O)Nc1ccc(-c2c(-c3cc(F)c(Oc4nccc(C)n4)c(F)c3)c(C(N)=O)c3cnc(C)cn23)cc1 [Example 48, 7-(3,5-difluoro-4-((4-methylpyrimidin-2-yl)oxy)phenyl)-6-(4-(2-fluoroacrylamido)phenyl)-3-methylpyrrolo[1,2-a]pyrazine-8-carboxamide]
FGFR2
  IC50: 10 to 100 nM
FGFR1
  IC50: 100 to 1000 nM
FGFR3
  IC50: 10 to 100 nM

## C=C(F)C(=O)Nc1ccc(-c2c(-c3ccc(Oc4nccc(C)n4)c(F)c3)c(C(N)=O)c3cnc(C)cn23)cn1 [Example 51, 7-(3-fluoro-4-((4-methylpyrimidin-2-yl)oxy)phenyl)-6-(6-(2-fluoroacrylamido)pyridin-3-yl)-3-methylpyrrolo[1,2-a]pyrazine-8-carboxamide]
FGFR2; [1]
  IC50: < 10 nM
FGFR1
  IC50: 10 to 100 nM
FGFR3
  IC50: 10 to 100 nM

## C=C(F)C(=O)Nc1ccc(-c2c(-c3ccc(Oc4cc(C)ccn4)cc3)c(C(N)=O)c3cnc(C)cn23)cc1 [Example 52]
FGFR2
  IC50: 100 to 1000 nM
FGFR1; [2]
  IC50: > 1000 nM
FGFR3; [3]
  IC50: > 1000 nM

## C=C(F)C(=O)Nc1ccc(-c2c(-c3ccc(Oc4nc(C)cc(C)n4)c(F)c3)c(C(N)=O)c3cnc(C)cn23)cc1 [Example 53, 7-(4-((4,6-dimethylpyrimidin-2-yl)oxy)-3-fluorophenyl)-6-(4-(2-fluoroacrylamido)phenyl)-3-methylpyrrolo[1,2-a]pyrazine-8-carboxamide]
FGFR2
  IC50: 10 to 100 nM
FGFR1; read-out: FGFR1 IC50, * incubation at room temperature for 60 minutes before addition of substrate solution, ATP 28 μM, FGFR1 0.01 nM
  IC50: > 1000 nM
FGFR3
  IC50: 100 to 1000 nM

## C=C(F)C(=O)Nc1ccc(-c2c(-c3ccc(Oc4ncc(F)c(C)n4)c(F)c3)c(C(N)=O)c3cnc(C)cn23)cc1 [Example 54, 7-(3-fluoro-4-((5-fluoro-4-methylpyrimidin-2-yl)oxy)phenyl)-6-(4-(2-fluoroacrylamido)phenyl)-3-methylpyrrolo[1,2-a]pyrazine-8-carboxamide]
FGFR2
  IC50: 10 to 100 nM
FGFR1
  IC50: 100 to 1000 nM
FGFR3
  IC50: 10 to 100 nM

## C=C(F)C(=O)Nc1ccc(-c2c(-c3ccc(Oc4nccc(C)n4)cc3)c(C(N)=O)c3cnc(C(F)(F)F)cn23)cc1 [Example 56, 6-(4-(2-fluoroacrylamido)phenyl)-7-(4-((4-methylpyrimidin-2-yl)oxy)phenyl)-3-(trifluoromethyl)pyrrolo[1,2-a]pyrazine-8-carboxamide]
FGFR2
  IC50: 10 to 100 nM
FGFR1
  IC50: 100 to 1000 nM
FGFR3
  IC50: 100 to 1000 nM

## C=C(F)C(=O)Nc1ccc(-c2c(-c3ccc(C(=O)NCC4(F)COC4)cc3)c(C(N)=O)c3cnc(C)cn23)cc1 [Example 63, 6-(4-(2-fluoroacrylamido)phenyl)-7-(4-(((3-fluorooxetan-3-yl)methyl)carbamoyl)phenyl)-3-methylpyrrolo[1,2-a]pyrazine-8-carboxamide]
FGFR2; [4]
  IC50: < 10 nM
FGFR1
  IC50: 10 to 100 nM
FGFR3
  IC50: 10 to 100 nM

## C=CC(=O)Nc1ccc(-c2c(-c3ccc(C(=O)NCC4(F)COC4)cc3)c(C(N)=O)c3cnc(C)cn23)cc1 [Example 64, 6-(4-acrylamidophenyl)-7-(4-(((3-fluorooxetan-3-yl)methyl)carbamoyl)phenyl)-3-methylpyrrolo[1,2-a]pyrazine-8-carboxamide]
FGFR2; [1]
  IC50: < 10 nM
FGFR1
  IC50: 10 to 100 nM
FGFR3; [3]
  IC50: < 10 nM

## CC#CC(=O)Nc1ccc(-c2c(-c3ccc(C(=O)NCC4(F)COC4)cc3)c(C(N)=O)c3cnc(C)cn23)cc1 [Example 65, 6-(4-(but-2-ynamido)phenyl)-7-(4-(((3-fluorooxetan-3-yl)methyl)carbamoyl)phenyl)-3-methylpyrrolo[1,2-a]pyrazine-8-carboxamide]
FGFR2
  IC50: 10 to 100 nM
FGFR1
  IC50: 100 to 1000 nM
FGFR3
  IC50: 100 to 1000 nM

## C=CC(=O)N1CC2(CC=C(c3c(-c4ccc(Oc5nccc(C)n5)cc4)c(C(N)=O)c4cnc(C)cn34)CC2)C1 [Example 70, 6-(2-acryloyl-2-azaspiro[3.5]non-6-en-7-yl)-3-methyl-7-(4-((4-methylpyrimidin-2-yl)oxy)phenyl)pyrrolo[1,2-a]pyrazine-8-carboxamide]
FGFR2
  IC50: 100 to 1000 nM
FGFR1
  IC50: 100 to 1000 nM
FGFR3
  IC50: 100 to 1000 nM

## C=C(F)C(=O)N1CCc2cc(-c3c(-c4ccc(Oc5nccc(C)n5)c(F)c4)c(C(N)=O)c4cnc(C)cn34)ccc21 [Example 72, 7-(3-fluoro-4-((4-methylpyrimidin-2-yl)oxy)phenyl)-6-(1-(2-fluoroacryloyl)indolin-5-yl)-3-methylpyrrolo[1,2-a]pyrazine-8-carboxamide]
FGFR2; [4]
  IC50: < 10 nM
FGFR1
  IC50: 100 to 1000 nM
FGFR3
  IC50: 10 to 100 nM

## C=C(F)C(=O)N1CCc2cc(-c3c(-c4ccc(Oc5nccc(C)n5)c(F)c4)c(C(N)=O)c4cnc(C)cn34)c(F)cc21 [Example 73, 6-(6-fluoro-1-(2-fluoroacryloyl)indolin-5-yl)-7-(3-fluoro-4-((4-methylpyrimidin-2-yl)oxy)phenyl)-3-methylpyrrolo[1,2-a]pyrazine-8-carboxamide]
FGFR2; [4]
  IC50: < 10 nM
FGFR1
  IC50: 10 to 100 nM
FGFR3; [5]
  IC50: < 10 nM

## C=C(F)C(=O)Nc1ccc(-c2c(-c3cccc(C(=O)NC)c3)c(C(N)=O)c3cnc(C)cn23)c(F)c1 [Example 75, 6-(2-fluoro-4-(2-fluoroacrylamido)phenyl)-3-methyl-7-(3-(methylcarbamoyl)phenyl)pyrrolo[1,2-a]pyrazine-8-carboxamide]
FGFR2
  IC50: 100 to 1000 nM
FGFR1
  IC50: 100 to 1000 nM
FGFR3
  IC50: 100 to 1000 nM

## C=CC(=O)Nc1ccc(-c2c(-c3ccc(Oc4cccc(C)n4)cc3)c(C(N)=O)c3cnc(C4COC4)cn23)cc1 [Example 76, 6-(4-acrylamidophenyl)-7-(4-((6-methylpyridin-2-yl)oxy)phenyl)-3-(oxetan-3-yl)pyrrolo[1,2-a]pyrazine-8-carboxamide]
FGFR2; [1]
  IC50: < 10 nM
FGFR1
  IC50: 10 to 100 nM
FGFR3; [3]
  IC50: < 10 nM

## C=CC(=O)Nc1ccc(-c2c(-c3ccc(Oc4cccc(C)n4)cc3)c(C(N)=O)c3cnc(C#N)cn23)cc1 [Example 77, 6-(4-acrylamidophenyl)-3-cyano-7-(4-((6-methylpyridin-2-yl)oxy)phenyl)pyrrolo[1,2-a]pyrazine-8-carboxamide]
FGFR2
  IC50: 10 to 100 nM
FGFR1; [2]
  IC50: > 1000 nM
FGFR3
  IC50: 100 to 1000 nM

## C=CC(=O)Nc1ccc(-c2c(-c3ccc(Oc4nccc(C)n4)c(F)c3)c(C(N)=O)c3cnc(CO)cn23)cc1 [Example 78, 6-(4-acrylamidophenyl)-7-(3-fluoro-4-((4-methylpyrimidin-2-yl)oxy)phenyl)-3-(hydroxymethyl)pyrrolo[1,2-a]pyrazine-8-carboxamide]
FGFR2; [1]
  IC50: < 10 nM
FGFR1
  IC50: 100 to 1000 nM
FGFR3; [3]
  IC50: < 10 nM

## Cc1ccnc(Oc2ccc(-c3c(C(N)=O)c4cnc(CO)cn4c3-c3ccc(NC(=O)/C=C/CN(C)C)cc3)cc2)n1 [Example 79, (E)-6-(4-(4-(dimethylamino)but-2-enamido)phenyl)-3-(hydroxymethyl)-7-(4-((4-methylpyrimidin-2-yl)oxy)phenyl)pyrrolo[1,2-a]pyrazine-8-carboxamide]
FGFR2; [1]
  IC50: < 10 nM
FGFR1
  IC50: 10 to 100 nM
FGFR3
  IC50: 10 to 100 nM

## C=C(F)C(=O)Nc1ccc(-c2c(-c3ccc(Oc4nccc(C)n4)cc3)c(C(N)=O)c3cnc(CCO)cn23)cc1 [Example 80, 6-(4-(2-fluoroacrylamido)phenyl)-3-(2-hydroxyethyl)-7-(4-((4-methylpyrimidin-2-yl)oxy)phenyl)pyrrolo[1,2-a]pyrazine-8-carboxamide]
FGFR2; [4]
  IC50: < 10 nM
FGFR1
  IC50: 100 to 1000 nM
FGFR3
  IC50: 10 to 100 nM

## C=C(F)C(=O)Nc1ccc(-c2c(-c3ccc(Oc4nccc(C)n4)cc3)c(C(N)=O)c3cnc(CCO)cn23)c(F)c1 [Example 81, 6-(2-fluoro-4-(2-fluoroacrylamido)phenyl)-3-(2-hydroxyethyl)-7-(4-((4-methylpyrimidin-2-yl)oxy)phenyl)pyrrolo[1,2-a]pyrazine-8-carboxamide]
FGFR2; [4]
  IC50: < 10 nM
FGFR1
  IC50: 10 to 100 nM
FGFR3; [5]
  IC50: < 10 nM

## C=C(F)C(=O)Nc1ccc(-c2c(-c3ccc(Oc4nccc(C)n4)c(F)c3)c(C(N)=O)c3cnc(CCO)cn23)c(F)c1 [Example 82, 7-(3-fluoro-4-((4-methylpyrimidin-2-yl)oxy)phenyl)-6-(2-fluoro-4-(2-fluoroacrylamido)phenyl)-3-(2-hydroxyethyl)pyrrolo[1,2-a]pyrazine-8-carboxamide]
FGFR2; [4]
  IC50: < 10 nM
FGFR1
  IC50: 10 to 100 nM
FGFR3; [5]
  IC50: < 10 nM

## C=C(F)C(=O)Nc1ccc(-c2c(-c3ccc(Oc4nccc(C)n4)cc3)c(C(N)=O)c3cnc(NC(C)=O)cn23)cc1 [Example 83, 3-acetamido-6-(4-(2-fluoroacrylamido)phenyl)-7-(4-((4-methylpyrimidin-2-yl)oxy)phenyl)pyrrolo[1,2-a]pyrazine-8-carboxamide]
FGFR2; [4]
  IC50: < 10 nM
FGFR1
  IC50: 100 to 1000 nM
FGFR3
  IC50: 10 to 100 nM

## C=CC(=O)Nc1ccc(-c2c(-c3ccc(Oc4cccc(C)n4)cc3)c(C(N)=O)c3ccnc(C)n23)cc1 [Example 84, 7-(4-acrylamidophenyl)-1-methyl-6-(4-((6-methylpyridin-2-yl)oxy)phenyl)pyrrolo[1,2-c]pyrimidine-5-carboxamide]
FGFR2; [1]
  IC50: < 10 nM
FGFR1
  IC50: 100 to 1000 nM
FGFR3
  IC50: 10 to 100 nM
